{
  "source": "patent US20050079502A1",
  "about": "“Transplant rejection suppressor” (AJINOMOTO CO. INC., priority 2000, published 2005)",
  "key": {"IL-12 [1]": {"tested_on": "IL-12", "assay": "Inhibition of IL-12 production from LNT-induced Mφ by addition of DEM or BCNU", "assay_type": "cell-based", "method": "(§1) The quantitative determination of IL-12 was conducted by a bioassay using human T cell strain 2D6 cells (refer to J. LEUKOCYTE BIOLOGY, vol. 61, PP 346, 1997).\n(§2) The 2D6 cells cultured in RPMI 1640 medium containing 500 pg/ml of recombinant human IL-12, 50 μM 2-mercaptoethanol and 10% FCS (bovine fetal serum) were shifted into a tube and centrifugally washed three times with the same medium from which IL-12 was removed, and the cell concentration was adjusted to 1×10^5/ml. The cell suspension was added in an amount of 100 μl to each well of a 96-well flat bottom plate in which 100 μl of a sample diluted in series with RPMI 1640 medium containing 50 μM 2-mercaptoethanol and 10% FCS was previously charged in each well. The mixture was then charged into a 5% CO2 incubator at 37° C. to conduct the incubation for 48 hours. In the last 6 hours, ^3H-TdR was pulsed (a substance adjusted to 370 kBq/ml with RPMI 1640 medium containing 50 μM 2-mercaptoethanol and 10% FCS was added in an amount of 50 μl each). The cells were harvested, and a radioactivity was measured with a β counter (Matrix 96: manufactured by Packard).\nIt was shown that IL-12 was produced only in reductive Mφ having the high GSH content in cells. […] That is, it was analyzed whether the IL-12 production was inhibited by stimulating the Mφ induced by LNT with DEM or BCNU."}, "IL-12 [2]": {"tested_on": "IL-12", "assay": "IL-12 productivity of Mφ prepared by intraperitoneal injection of substances", "assay_type": "in vivo, mice", "conditions": "stimulation with LPS and IFNγ; Mφ prepared by intraperitoneal injection of the substance", "method": "as §1, §2\nMφ prepared by intraperitoneally injecting LNT is reductive Mφ having a high GSH content, and Mφ prepared by intraperitoneally injecting LPS is oxidative Mφ having a low GSH content. It was examined whether or not there was a difference in IL-12 productivity between LNT derived Mφ and LPS derived Mφ.\nThen, the same analysis was conducted using Mφ prepared by intraperitoneally injecting substances of changing the GSH content in cells."}, "[3]": {"tested_on": "skin graft (B10.D2 donor, BALB/c recipient, different in minor antigen only)", "assay": "Skin transplantation rejection model", "assay_type": "in vivo, mouse", "method": "Mice, 8 to 10 weeks old, are used, a BALB/c (H-2d) mouse is used as a recipient in transplantation, and a B10.D2 (H-2d) mouse different in minor antigen only is used as a donor. To the recipient mouse, 3 mg of ketamine and 0.0075 mg of xylazine for anesthesia are intraperitoneally administered, and transplantation is performed. The skin on the body wall of the donor mouse is transplanted on the thoracic wall (8×8 mm). A gauze having a larger size than the graft covers there, and an antibiotic ointment is applied. The graft is fastened with a cast to complete the operation. The cast is removed after 7 days, and the rejection is then observed every day.\nMice, 8 to 10 weeks old, were used. A BALB/c (H-2d) mouse was used as a recipient of transplantation, and a B10.D2 (H-2d) mouse different in minor antigen only was used as a donor. […]\nWith respect to the drug, N,N′-diacetylcystine diethyl ester, 0.5 ml, per injection, of a 400 μg/ml solution was injected in each of the B10.D2 donor and the BALB/c recipient intraperitoneally and subcutaneously in a site for skin transplantation. […] The significant difference in graft survival rate after the skin transplantation was comparatively detected by the Breslow-Gehan-Wilcoxon test using Kaplan-Meier survival curves. […]"}, "IL-6": {"tested_on": "IL-6", "assay": "IL-6 productivity of Mφ from treated JAK3 knockout mice", "assay_type": "in vivo", "conditions": "LPS stimulation, 1 mg/ml in drinking water 24 days, untreated knockout 962 pg/ml", "method": "A stimulator was added to 1×10^6 Mφ, and the mixture was incubated in a CO2 incubator at 37° C. for 2 days. After centrifugation, the culture supernatant was collected.\nThe quantitative determination of IL-6 was conducted using mouse hybridoma MH60 cells grown dependently on IL-6 (refer to J. EUR. IMMUNOL., vol. 18, PP 951, 1988). 100 μl of the culture supernatant was added to 100 μl of the MH60 cell solution adjusted to a concentration of 1×10^5 cells/ml with a 10% FCS-containing RPMI medium, and the mixture was incubated in a CO2 incubator at 37° C. for 2 days. Then, 10 μl of MTT (made by Sigma) was adjusted to a concentration of 5 mg/ml with the same medium. The mixture was reacted at 37° C. for 5 hours. After completion of the reaction, the reaction mixture was centrifuged to remove 160 μl of the supernatant. 100 μl of hydrochloric acid-propanol was added thereto, and it was suspended therein with a pipette man to dissolve cells. Immediately after the dissolution, absorbance of 570 nm was measured by an immunometer (manufactured by Bio-Rad).\n(§3) JAK3 knockout mice were divided into three groups. […]"}, "IL-12 [4]": {"tested_on": "IL-12", "assay": "IL-12 productivity of Mφ from treated JAK3 knockout mice", "assay_type": "in vivo", "conditions": "stimulation with LPS and IFNγ, 1 mg/ml in drinking water 24 days, no productivity in control group", "method": "as §1, §2, §3"}, "[5]": {"tested_on": "peritoneal Mφ of JAK3 knockout mice", "assay": "GSH content in peritoneal cells of treated JAK3 knockout mice, ACAS with MCB reagent", "assay_type": "in vivo", "conditions": "1 mg/ml in drinking water, 24 days", "method": "300 μl of a cell suspension having cell concentration of 3×10^5 cells/ml was prepared in RPMI 1640 medium (phenol-red-free), and it was charged into a chambered coverglass (#136439 manufactured by Nunc) and incubated in a CO2 incubator of 37° C. for 2 hours. The culture solution was washed with the same medium, and 300 μl of 10 μM monochlorobimane (made by Molecular Plobe) prepared with the same medium was added thereto. The mixture was charged into a CO2 incubator of 37° C., and reacted for 30 minutes. An intensity of fluorescence was then measured by ACAS. By this way, UV laser was used in the ACAS.\nJAK3 knockout mice were divided into three groups. A control group was a group in which mice were caused to freely drink usual tap water, an NAC group was a group in which mice were caused to freely drink tap water containing 1 mg/ml of NAC, and a GSH-OEt group was a group in which mice was caused to freely drink tap water containing 1 mg/ml of GSH-OEt. The bleeding was continued under SPF conditions for 24 days, and peritoneal exudate adhered cells, namely macrophages were obtained in like manner.\nPeritoneal cells of knockout mice that underwent the respective treatments were prepared, and the GSH content in cells was analyzed by ACAS using an MCB reagent."}, "[6]": {"tested_on": "corneal graft (B10.D2 donor, BALB/c recipient, different in minor antigen only)", "assay": "Corneal transplantation into high-risk eyes (induced corneal new blood vessels); rejection judged by corneal opacity score", "assay_type": "in vivo, mouse", "text": "In estimating the induction of the cornea take in the corneal allograft, mice, 8 to 10 weeks old, are used, a BALB/c (H-2d) mouse is used as a recipient, and a B10.D2 (H-2d) mouse only different in minor antigen is used as a donor.\nThe corneal transplantation inducing corneal new blood vessel of a high-risk eye that tends to cause rejection at a high rate in an early stage in a recipient: a corneal parenchyma is sutured with three stitches using a 11-0 nylon yarn which is allowed to stand for 14 days and the nylon yarn is removed in the corneal transplantation, is performed as follows. To a recipient mouse are intraperitoneally administered 3 mg of ketamine and 0.0075 mg of xylazine for anesthesia, and transplantation is performed. A central portion of cornea in a donor mouse is cut out to a circle having a diameter of 2 mm to form a graft. A central portion of cornea in a host mouse is cut out to a diameter of 2 mm. The donor cornea is sutured on margins with eight stitches using a 11-0 nylon yarn. After the surgical operation, an antibiotic ointment is coated thereon, and the eyelids are sutured with a 8-0 nylon yarn. The eyelid suture is removed after 72 hours from the surgical operation, and the corneal suture is removed on day 7 after the transplantation.\nIn the judgement of the corneal rejection, monitoring is performed twice a week using a slit-lamp microscope. The rejection is judged by scoring a corneal opacity with six grades. In connection with a time capable of judgement, the score of 3 or more on or after day 14 from the transplantation and the score of 2 or more on or after day 21 are judged to indicate the rejection. […]\nIn a method of one administration, a drug is dissolved or suspended in a physiological saline solution to a predetermined concentration, and 0.5 ml thereof is then intraperitoneally injected in a mouse. […] A significant difference in graft survival rate of the corneal transplantation was comparatively detected by the Breslow-Gehan-Wilcoxon test using Kaplan-Meier survival curves. […]"}, "[7]": {"tested_on": "peritoneal exudate cells (macrophages)", "assay": "Induction of oxidative or reductive macrophages, monochlorobimane/ACAS analysis of peritoneal exudate cells", "assay_type": "in vivo", "conditions": "i.p. to mice: 20 μg LPS; 100 μg LNT three times every other day; monochlorobimane 10 μM, ACAS", "text": "The increase in amount of oxidative macrophages can easily be detected visually from the fact that almost no reaction product is observed. More specifically, a gray or blue image is obtained. An increase in amount of reductive macrophages is known from the fact that a red or yellow image can be obtained."}},
  "data": [
    {"compound": "CCOC(=O)/C=C\\C(=O)OCC", "note": "[DEM]", "values": [
      {"measurement": "IL-12 production from the Mφ induced by LNT after addition", "setting": "IL-12 [1]; addition of DEM or BCNU to LNT-induced Mφ, 828 pg/ml without addition", "result": 0, "unit": "pg/mL"},
      {"measurement": "IL-12 productivity", "setting": "IL-12 [2]", "result": "IL-12 was produced by stimulation with LPS and IFNγ only in Mφ derived from mice administered with GSH-OEt"}
    ]},
    {"compound": "CCOC(=O)[C@H](CSSC[C@H](NC(C)=O)C(=O)OCC)NC(C)=O", "note": "[N,N′-diacetylcystine diethyl ester]", "values": [
      {"measurement": "MST", "setting": "[3]; 0.5 ml of 400 μg/ml i.p. and s.c., x3 before (donor and recipient) and day 3-21 after skin transplantation, N=8", "result": "28.3 ± 1.8", "unit": "days"},
      {"measurement": "graft survival rate in comparison to the PBS administration control group", "setting": "[3]; skin transplantation, N=8 vs N=10, P<0.013", "result": "significantly increased"}
    ]},
    {"compound": "CCCCS(=N)(=O)CCC(N)C(=O)O", "note": "[BSO, L-S, R-buthionine sulfoximine]", "values": [
      {"measurement": "IL-12 productivity", "setting": "IL-12 [2]", "result": "IL-12 was produced by stimulation with LPS and IFNγ only in Mφ derived from mice administered with GSH-OEt"}
    ]},
    {"compound": "CCOC(=O)CNC(=O)[C@H](CS)NC(=O)CC[C@H](N)C(=O)O", "note": "[GSH-OEt]", "values": [
      {"measurement": "IL-6 productivity", "setting": "IL-6", "result": 82, "unit": "pg/mL"},
      {"measurement": "IL-12 productivity", "setting": "IL-12 [4]", "result": 610, "unit": "pg/mL"},
      {"measurement": "reduced glutathione content in peritoneal Mφ vs tap water control group", "setting": "[5]", "result": "remarkably increased"},
      {"measurement": "IL-12 productivity", "setting": "IL-12 [2]", "result": "3,570 pg/ml"}
    ]},
    {"compound": "COC(=O)[C@H](CSSC[C@H](NC(C)=O)C(=O)OC)NC(C)=O", "note": "[NAC (OMe)2, N,N′-diacetylcystine dimethyl ester]", "values": [
      {"measurement": "graft survival rate in comparison to the PBS administration control group", "setting": "[6]; 0.5 ml of 400 μg/ml i.p. 7 days, 4 days and 1 hour before corneal transplantation, N=15 vs N=10, P<0.0001, Breslow-Gehan-Wilcoxon test", "result": "significantly increased"},
      {"measurement": "rejection in 3 weeks", "setting": "[6]; high-risk eye corneal graft, i.p. x3 before transplantation, PBS control rejected by 100% in approximately 3 weeks", "result": 0, "unit": "%"},
      {"measurement": "graft survival rate finally provided", "setting": "[6]; high-risk eye corneal graft, observed till the eighth week", "result": 77, "unit": "%"}
    ]},
    {"compound": "letinan [LNT]", "values": [
      {"measurement": "type of macrophages induced", "setting": "[7]", "result": "reductive macrophages were induced"},
      {"measurement": "IL-12 production from the Mφ induced by LNT", "setting": "IL-12 [1]; without addition of DEM or BCNU", "result": 828, "unit": "pg/mL"},
      {"measurement": "IL-12 productivity", "setting": "IL-12 [2]", "result": "1,312 pg/ml"}
    ]},
    {"compound": "lipopolysaccharide [LPS]", "values": [
      {"measurement": "type of macrophages induced", "setting": "[7]", "result": "oxidative macrophages were induced"},
      {"measurement": "IL-12 productivity", "setting": "IL-12 [2]", "result": "no productivity was observed"}
    ]},
    {"compound": "CC(=O)N[C@@H](CS)C(=O)O", "note": "[NAC]", "values": [
      {"measurement": "IL-6 productivity", "setting": "IL-6", "result": 122, "unit": "pg/mi"},
      {"measurement": "IL-12 productivity", "setting": "IL-12 [4]", "result": 420, "unit": "pg/mL"},
      {"measurement": "reduced glutathione content in peritoneal Mφ vs tap water control group", "setting": "[5]", "result": "remarkably increased"}
    ]}
  ]
}
